Source: patent publication US20140322251A1, “Peptides for Progressive Treating Multi-Focal Leukoencephalopathy and Related Conditions” (priority 2013, published 2014)
“Also recorded” adds a separate entry of the source.

Legend:
[1] = tested on: HIV gp120 neurotoxicity; settings: cited from earlier work; for EC50: read-out: EC50 (pM), antagonism of HIV gp120 neurotoxicity
[2] = tested on: HIV (92HT596; R5/X4 isolate) entry via CXCR4, MAGI-CXC4 cells; settings: peptide 1 nM, 48 hrs, mean and s.e.m of triplicate cultures; cited from earlier work
[3] = tested on: HIV (92HT596; R5/X4 isolate) entry via CCR5, MAGI-CCR5 cells; settings: peptide 1 nM, 48 hrs, mean and s.e.m of triplicate cultures; cited from earlier work
[4] = tested on: CCR5/CCR2 chemokine receptor system, CCL2 chemotaxis of human monocytes; experiment: CCL2 (MCP-1) mediated human monocyte chemotaxis (FIG. 1); assay type: cell-based; settings: FIG. 1, triplicate determinations
From the text: FIG. 1 illustrates that all-D-pentapeptide analogs of Peptide T inhibit CCL2 mediated human monocyte chemotaxis.
In order to overcome this limitation we hereby disclose an unexpected method of preserving potency. […] B. Pert, J. D. Rone, R. Nixon, M. Vance, B. Sandler, M. D. Lumpkin, D. J. Dieter, and M. R. Ruff. 1999. Peptide T blocks GP120/CCR5 chemokine receptor-mediated chemotaxis. Clin Immunol.
The FIG. 1 assay measured the peptide's ability to block CCL2 (MCP-1) chemotaxis.

[5] = tested on: neuropathic pain and inflammation; settings: animals; cited from earlier work
[6] = tested on: chemokine receptors; settings: two D-substitutions in peptide T; cited from earlier work

Q: With SSTYR as the substance, how does the EC50 [1] read?
A: Its EC50 is 1 pM.

Q: For TTSYT, which “BFU (% Control) MAGI-CXC4” value [2] is on record?
A: Its value is 35 +/− 7 % Control.

Q: What about the “BFU (% Control) MAGI-CCR5” value [3] of the same substance?
A: Its value is 23 +/− 5 % Control.

Q: And the EC50 [1]?
A: The EC50 was 10 pM.

Q: For TTSFT [reference compound], which EC50 [1] is on record?
A: The EC50 was 100000 pM.

Q: Which EC50 [1] does the source give for STNYT here?
A: The EC50 was 3 pM.

Q: With TTNYT as the substance, how does the “BFU (% Control) MAGI-CXC4” value [2] read?
A: Its value is 45 +/− 7 % Control.

Q: And the “BFU (% Control) MAGI-CCR5” value [3]?
A: Its value is 23 +/− 4 % Control.

Q: And the EC50 [1]?
A: Its EC50 is 10 pM.

Q: With ETWYS as the substance, how does the “BFU (% Control) MAGI-CXC4” value [2] read?
A: Its value is 65 +/− 5 % Control.

Q: And the “BFU (% Control) MAGI-CCR5” value [3]?
A: Its value is 21 +/− 7 % Control.

Q: What about the EC50 [1] of the same substance?
A: Its EC50 is 13 pM.

Q: With TENYT [reference compound] as the substance, how does the “EC50 (pM), antagonism of HIV gp120 neurotoxicity” value [1] read?
A: Its value is “inactive”.

Q: With TTNdYT [reference compound] as the substance, how does the “EC50 (pM), antagonism of HIV gp120 neurotoxicity” value [1] read?
A: Its value is “inactive”.

Q: And the “activity / biopotency (gp120 neurotoxicity)” value [1]?
A: The value was “loss of all activity; also recorded: completely loses activity”.

Q: For (all-D)-TTNYT, which “block of CCL2 (MCP-1) chemotaxis / CCR5/CCR2 chemokine receptor system” value [4] is on record?
A: The value was “blocked”.

Q: What about the oral efficacy [5] of the same substance?
A: The oral efficacy was “prevent and reverse neuropathic pain and block inflammation”.

Q: Which results are given for NTSYG?
A: BFU (% Control) MAGI-CXC4 [2]: 60 +/− 8| % Control; EC50 [1]: 10 pM

Q: Which “loss of potency versus peptide T” value [6] does the source give for (D-A1, D-T8)-peptide T-NH2 here?
A: The value was “over 100,000 fold”.

Q: With TDNYT [reference compound] as the substance, how does the EC50 [1] read?
A: Its EC50 is 3000 pM.
